Paper PMC5811606, “Characterization of ^111In-labeled Glucose-Dependent Insulinotropic Polypeptide as a Radiotracer for Neuroendocrine Tumors” (Scientific Reports, 2018)
Where two headings read alike, the source gives them in different places.

Columns and labels:
[1] = Biodistribution study, BHK-GIPR tumor mice; format: in vivo, BALB/c nude mice; settings: female, mouse, iv, total radioactivity, BHK-GIPR tumor BALB/c nude mice, i.v., 0.2 µg, mean n=5; for tissue to tissue ratio at 1 h: 1 h p.i.; for tissue to tissue ratio at 24 h: 24 h p.i.
Procedure: (§1) All animal experiments were approved by the Animal Welfare Body of the Radboud University, Nijmegen, The Netherlands and carried out in accordance with their guidelines. Six to eight weeks old, female BALB/c nude mice and C3H mice were purchased from Janvier labs (Le Genest Saint Isle, France). For all in vivo experiments, 6-8 weeks old female BALB/c nude mice were injected subcutaneously in the right shoulder with 0.2 ml of a 2.5 × 10^7 cells/ml suspension of BHK-GIPR transfected cells or with 0.2 ml of a 2.5 × 10^7 cells/ml suspension of NES2Y cells mixed with matrigel (2:1) in the right shoulder. When the tumor reached a diameter of 2-5 mm, mice were randomly divided in groups.
(§2) BALB/c nude mice bearing BHK-GIPR transfected tumors were injected intravenously with approximately 3 MBq (peptide dose 0.2 µg = 0.04 nmol) of [Lys^37(^111In-DTPA)]N-acetyl-GIP1-42 via the tail vein. At various time points after injection (1, 4 and 24 hours), mice were euthanized by CO2/O2 suffocation and blood, tumor and other relevant tissues were dissected, weighed and measured in a well type gamma counter. The percentage injected dose per gram (%ID/g) was calculated for each tissue. To determine whether the GIP1-42 uptake was GIPR mediated, 25 µg of unlabeled GIP1-42 was co-injected in a separate group (n = 5) and mice were euthanized four hours post-injection. BALB/c nude mice bearing NES2Y tumors (n = 5) were injected intravenously with approximately 3 MBq (peptide dose 0.2 µg = 0.04 nmol) of [Lys^37(^111In-DTPA)]N-acetyl-GIP1-42 via the tail vein. One hour after injection, mice were euthanized by CO2/O2 suffocation and blood, tumor and other relevant tissues were dissected, weighed and measured in a well type gamma counter. The percentage injected dose per gram (%ID/g) was determined for each tissue. To determine whether the GIP1-42 uptake was GIPR mediated, 25 µg of unlabeled GIP1-42 was co-injected in a separate group (n = 2) and mice were euthanized one hours post-injection.

[2] = Biodistribution study, NES2Y tumor mice; format: in vivo; settings: female, mouse, iv, total radioactivity, i.v., 0.2 µg; for tissue uptake at 1 h: BALB/c nude; for tissue to tissue ratio at 1 h: NES2Y tumor BALB/c nude mice
Procedure: as §1, §2

[3] = tumor/heart, 0.2 ug, read-out: Tumor/Heart
[4] = tumor/kidney, 0.2 ug, read-out: Tumor/Kidney
[5] = tumor/muscle, 0.2 ug, read-out: Tumor/Muscle

## CC[C@H](C)[C@H](NC(=O)[C@H](CO)NC(=O)[C@H](Cc1ccc(O)cc1)NC(=O)[C@H](CC(=O)O)NC(=O)[C@H](CO)NC(=O)[C@@H](NC(=O)[C@H](Cc1ccccc1)NC(=O)[C@@H](NC(=O)CNC(=O)[C@H](CCC(=O)O)NC(=O)[C@H](C)NC(=O)[C@H](Cc1ccc(O)cc1)NC(C)=O)[C@@H](C)O)[C@@H](C)CC)C(=O)N[C@@H](C)C(=O)N[C@@H](CCSC)C(=O)N[C@@H](CC(=O)O)C(=O)N[C@@H](CCCCN)C(=O)N[C@H](C(=O)N[C@@H](Cc1c[nH]cn1)C(=O)N[C@@H](CCC(N)=O)C(=O)N[C@@H](CCC(N)=O)C(=O)N[C@@H](CC(=O)O)C(=O)N[C@@H](Cc1ccccc1)C(=O)N[C@H](C(=O)N[C@@H](CC(N)=O)C(=O)N[C@@H](Cc1c[nH]c2ccccc12)C(=O)N[C@@H](CC(C)C)C(=O)N[C@@H](CC(C)C)C(=O)N[C@@H](C)C(=O)N[C@@H](CCC(N)=O)C(=O)N[C@@H](CCCCN)C(=O)NCC(=O)N[C@@H](CCCCN)C(=O)N[C@@H](CCCCN)C(=O)N[C@@H](CC(N)=O)C(=O)N[C@@H](CC(=O)O)C(=O)N[C@@H](Cc1c[nH]c2ccccc12)C(=O)N[C@@H](CCCCNC(=O)CN(CCN(CCN(CC(=O)O)CC(=O)O)CC(=O)O)CC(=O)O)C(=O)N[C@@H](Cc1c[nH]cn1)C(=O)N[C@@H](CC(N)=O)C(=O)N[C@H](C(=O)N[C@H](C(=O)N[C@@H](CCC(N)=O)C(=O)O)[C@@H](C)O)[C@@H](C)CC)C(C)C)[C@@H](C)CC [[Lys^37(^111In-DTPA)]N-acetyl-GIP1-42, metal not drawn]
[1]; tumor/blood, 4 h p.i. + xs (25 µg unlabeled GIP1-42), read-out: Tumor/Blood
  tissue to tissue ratio at 4 h: 29.8
[1]; [3]
  tissue to tissue ratio at 1 h: 23.6
  tissue to tissue ratio at 24 h: 25.5
[1]; tumor/heart, 0.2 ug, 4 h p.i., read-out: Tumor/Heart
  tissue to tissue ratio at 4 h: 29
[1]; tumor/heart, 4 h p.i. + xs (25 µg unlabeled GIP1-42), read-out: Tumor/Heart
  tissue to tissue ratio at 4 h: 8.89
[1]; [4]
  tissue to tissue ratio at 1 h: 0.023
  tissue to tissue ratio at 24 h: 0.011
[1]; tumor/kidney, 0.2 ug, 4 h p.i., read-out: Tumor/Kidney
  tissue to tissue ratio at 4 h: 0.014
[1]; tumor/kidney, 4 h p.i. + xs (25 µg unlabeled GIP1-42), read-out: Tumor/Kidney
  tissue to tissue ratio at 4 h: 0.004
[1]; tumor/lung, 0.2 ug, read-out: Tumor/Lung
  tissue to tissue ratio at 1 h: 8.64
[1]; tumor/lung, 0.2 ug, 4 h p.i., read-out: Tumor/Lung
  tissue to tissue ratio at 4 h: 10.1
[1]; tumor/lung, 4 h p.i. + xs (25 µg unlabeled GIP1-42), read-out: Tumor/Lung
  tissue to tissue ratio at 4 h: 2.68
[1]; [5]
  tissue to tissue ratio at 1 h: 35
  tissue to tissue ratio at 24 h: 36.4
[1]; tumor/muscle, 0.2 ug, 4 h p.i., read-out: Tumor/Muscle
  tissue to tissue ratio at 4 h: 40.4
[1]; tumor/muscle, 4 h p.i. + xs (25 µg unlabeled GIP1-42), read-out: Tumor/Muscle
  tissue to tissue ratio at 4 h: 12.4
[2]; NES2Y tumor, 0.2 ug, 1 h p.i., mean n=5, read-out: Tumor uptake
  tissue uptake at 1 h: 0.7 ± 0.2 %ID/g
[2]; NES2Y tumor, 1 h p.i. + xs (25 µg unlabeled GIP1-42), mean, n=5, read-out: Tumor uptake
  tissue uptake at 1 h: 0.6 ± 0.01 %ID/g
[2]; duodenum, 0.2 ug, 1 h p.i., mean n=5, read-out: Duodenum uptake
  tissue uptake at 1 h: 0.42 %ID/g
[2]; duodenum, 1 h p.i. + xs (25 µg unlabeled GIP1-42), mean, n=5, read-out: Duodenum uptake
  tissue uptake at 1 h: 0.369 %ID/g
[2]; heart, 0.2 ug, 1 h p.i., mean n=5, read-out: Heart uptake
  tissue uptake at 1 h: 0.135 %ID/g
[2]; heart, 1 h p.i. + xs (25 µg unlabeled GIP1-42), mean, n=5, read-out: Heart uptake
  tissue uptake at 1 h: 0.103 %ID/g
[2]; kidney, 0.2 ug, 1 h p.i., mean n=5, read-out: Kidney uptake
  tissue uptake at 1 h: 184 %ID/g
[2]; kidney, 1 h p.i. + xs (25 µg unlabeled GIP1-42), mean, n=5, read-out: Kidney uptake
  tissue uptake at 1 h: 180 %ID/g
[2]; liver, 0.2 ug, 1 h p.i., mean n=5, read-out: Liver uptake
  tissue uptake at 1 h: 1.1 %ID/g
[2]; liver, 1 h p.i. + xs (25 µg unlabeled GIP1-42), mean, n=5, read-out: Liver uptake
  tissue uptake at 1 h: 0.827 %ID/g
[2]; lung, 0.2 ug, 1 h p.i., mean n=5, read-out: Lung uptake
  tissue uptake at 1 h: 0.485 %ID/g
[2]; lung, 1 h p.i. + xs (25 µg unlabeled GIP1-42), mean, n=5, read-out: Lung uptake
  tissue uptake at 1 h: 0.474 %ID/g
[2]; muscle, 0.2 ug, 1 h p.i., mean n=5, read-out: Muscle uptake
  tissue uptake at 1 h: 0.069 %ID/g
[2]; muscle, 1 h p.i. + xs (25 µg unlabeled GIP1-42), mean, n=5, read-out: Muscle uptake
  tissue uptake at 1 h: 0.057 %ID/g
[2]; pancreas, 0.2 ug, 1 h p.i., mean n=5, read-out: Pancreas uptake
  tissue uptake at 1 h: 0.201 %ID/g
[2]; pancreas, 1 h p.i. + xs (25 µg unlabeled GIP1-42), mean, n=5, read-out: Pancreas uptake
  tissue uptake at 1 h: 0.158 %ID/g
[2]; spleen, 0.2 ug, 1 h p.i., mean n=5, read-out: Spleen uptake
  tissue uptake at 1 h: 0.462 %ID/g
[2]; spleen, 1 h p.i. + xs (25 µg unlabeled GIP1-42), mean, n=5, read-out: Spleen uptake
  tissue uptake at 1 h: 0.341 %ID/g
[2]; stomach, 0.2 ug, 1 h p.i., mean n=5, read-out: Stomach uptake
  tissue uptake at 1 h: 0.336 %ID/g
[2]; stomach, 1 h p.i. + xs (25 µg unlabeled GIP1-42), mean, n=5, read-out: Stomach uptake
  tissue uptake at 1 h: 0.283 %ID/g
[2]; whole blood, 0.2 ug, 1 h p.i., mean n=5, read-out: Blood uptake
  tissue uptake at 1 h: 0.175 %ID/g
[2]; whole blood, 1 h p.i. + xs (25 µg unlabeled GIP1-42), mean, n=5, read-out: Blood uptake
  tissue uptake at 1 h: 0.214 %ID/g
[2]; tumor and blood, 0.2 ug, 1 h p.i., mean n=5, read-out: Tumor/Blood
  tissue to tissue ratio at 1 h: 3.96
[2]; tumor and blood, 1 h p.i. + xs (25 µg unlabeled GIP1-42), mean, n=5, read-out: Tumor/Blood
  tissue to tissue ratio at 1 h: 3.01
[2]; tumor and heart, 0.2 ug, 1 h p.i., mean n=5, read-out: Tumor/Heart
  tissue to tissue ratio at 1 h: 4.83
[2]; tumor and heart, 1 h p.i. + xs (25 µg unlabeled GIP1-42), mean, n=5, read-out: Tumor/Heart
  tissue to tissue ratio at 1 h: 6.09
[2]; tumor and kidney, 0.2 ug, 1 h p.i., mean n=5, read-out: Tumor/Kidney
  tissue to tissue ratio at 1 h: 0.004
[2]; tumor and kidney, 1 h p.i. + xs (25 µg unlabeled GIP1-42), mean, n=5, read-out: Tumor/Kidney
  tissue to tissue ratio at 1 h: 0.004
[2]; tumor and lung, 0.2 ug, 1 h p.i., mean n=5, read-out: Tumor/Lung
  tissue to tissue ratio at 1 h: 1.38
[2]; tumor and lung, 1 h p.i. + xs (25 µg unlabeled GIP1-42), mean, n=5, read-out: Tumor/Lung
  tissue to tissue ratio at 1 h: 1.33
[2]; tumor and muscle, 0.2 ug, 1 h p.i., mean n=5, read-out: Tumor/Muscle
  tissue to tissue ratio at 1 h: 9.43
[2]; tumor and muscle, 1 h p.i. + xs (25 µg unlabeled GIP1-42), mean, n=5, read-out: Tumor/Muscle
  tissue to tissue ratio at 1 h: 11.1
